Measured values published in patent publication US10874743B2, “IRAK degraders and uses thereof” (Kymera Therapeutics, Inc., priority 2017, dated 2020).

Target: T1, IRAK4 (Homo sapiens, UniProt Q9NWZ3)
T1 sequence (Q9NWZ3 1-460): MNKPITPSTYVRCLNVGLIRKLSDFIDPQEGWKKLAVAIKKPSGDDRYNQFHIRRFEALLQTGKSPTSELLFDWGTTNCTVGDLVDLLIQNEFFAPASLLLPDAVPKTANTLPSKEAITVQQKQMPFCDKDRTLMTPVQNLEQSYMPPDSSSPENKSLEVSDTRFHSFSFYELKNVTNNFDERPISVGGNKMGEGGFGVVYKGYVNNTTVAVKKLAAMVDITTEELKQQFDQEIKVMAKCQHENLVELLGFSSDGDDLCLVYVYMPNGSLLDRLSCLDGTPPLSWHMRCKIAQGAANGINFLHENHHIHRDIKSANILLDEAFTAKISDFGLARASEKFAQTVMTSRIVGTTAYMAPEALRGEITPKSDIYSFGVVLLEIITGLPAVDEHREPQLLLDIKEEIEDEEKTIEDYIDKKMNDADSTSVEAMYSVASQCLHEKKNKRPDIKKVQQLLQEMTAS
Experiment: OCI-LY-10 degradation assay (western blot, % IRAK4 degraded after 4 hours)
Assay type: cell-based
Parameters: endogenous in cells; host or cells: OCI-LY10
Conditions: OCI-LY10 cells, IRAK4 degraded after 4 hours, western blot
Procedure: Compounds were reconstituted in DMSO to make stock solutions at concentration of 60 mM. THP-1 and OCI-LY10 cells were maintained in RPMI-1640 medium containing 10% FBS, 0.5 μM 2-ME or 20% FBS, 55 μM 2-ME, and 1% L-Glutamine respectively.
Cells were seeded into 6-well plates with 5e6 cells per well. 200 μL of diluted compounds were added to cells to the final concentration of 0.003-10 μM. After 4 or 24 hour-incubation at 37° C., cells were collected into 2 mL Eppendorf tubes and centrifuged at 1,000 rpm for 5 min. The cell pellets were washed with 1×DPBS once and resuspended in 60 μL lysis buffer. The cells were lysed on ice for 10 min, then centrifuged at 14,000 rpm for 10 min at 4° C. and the supernatants were collected for western blots. For THP-1 cells, the lysis buffer contained 40 mM pH 7.4 HEPES, 140 mM NaCl, 2.5 mM EDTA, 1% NP-40, 0.1% SDS, and protease inhibitor cocktail (Roche, Cat. No. 05892791001). For OCI-LY10 cells, RIPAbuffer (Thermo Fisher, 89900) with Halt Protease and Phosphatase Inhibitor Cocktail (Thermo Fisher, 78446) was applied.
The protein concentration of cell lysates was quantified with Pierce™ BCA Protein Assay Kit (Pierce, 23227). Albumin standards at different concentrations were prepared, involving 2,000 ug/mL, 1,500 ug/mL, 1,000 ug/mL, 750 ug/mL, 500 ug/mL, 250 ug/mL, 125 ug/mL, and 25 ug/mL. BCA working reagents were prepared by mixing BCA reagent A with reagent B in 50:1 ratio. 200 μL of the BCA working reagents were added to 25 μL of BCA standard or cell lysates in microplate, and mixed thoroughly on a plate shaker for 30 seconds. After incubation at 37° C. for 30 min, the absorbance of samples at 562 nm were measured with EnVision Plate Reader.
Protein lysates were prepared in NuPAGE™ LDS sample buffer and NuPAGE™ sample reducing agent, and incubated at 95° C. for 5 min. For western blots, 20-25 μg of total proteins were resolved in 4-12% Bis-Tris gels (Introgen, WG1403A) or 10% Bis-Tris Midi gels (Invitrogen, WG1202BOX) running with 1×MOPS SDS running buffer (Invitrogen, NP0001) or 1×MES SDS running buffer (Invitrogen, NP0002). The proteins were transferred to low fluorescence PVDF membranes using the Trans-Blot Turbo Transfer System. Membranes were then blocked in Odyssey blocking buffer at RT for 1 h followed by primary incubation at 4° C. overnight. The primary antibodies were IRAK1 rabbit monoclonal antibody (CST, #4504S, 1:500), IRAK3 rabbit polyclonal antibody (CST, #4369, 1:500), IRAK4 rabbit polyclonal antibody (CST, #4363S, 1:1,000), MyD88 rabbit monoclonal antibody (Abcam, Ab133739, 1:2,000), j3-actin mouse monoclonal antibody (Sigma, A5441, 10,000), and Gapdh mouse monoclonal antibody (Millipore, MAB374, 1:5,000). Membranes were washed three times with 1×TBST, and then incubated with IR Dye 800 CW Goat anti-rabbit (Licor, #926-32211) and IR Dye 700 CW Goat anti-mouse (Licor, #926-68070) secondary antibodies in 1:10,000 dilution at RT for 1 h. The western blot images were obtained using Odyssey Imaging System.
OCI-LY-10 results at 4 hours. The letter codes indicate the percentage of IRAK4 degraded after 4 hours: A (>50% degradation), B (>20-50% degradation) and C (<20% degradation)
OCI-LY-10 results at 4 hours. The letter codes for % IRAK4 degradation indicate the percentage of IRAK4 degraded after 4 hours across three different concentrations: A (>50% degradation), B (>20-50% degradation) and C (<20% degradation).

Row | SMILES | OCI-LY10 % IRAK4 Degradation
1 | N#Cc1cnc2c(cnn2-c2cc(NC3CC3)c(C(=O)N[C@H]3C[C@H](COCCOCCOCCOCCOCCNc4cccc5c4C(=O)N(C4CCC(=O)NC4=O)C5=O)C3)cn2)c1 (some centres unmarked) [I-36] | C (<20% degradation)
2 | CN(CCOCCOCCNc1cccc2c1C(=O)N(C1CCC(=O)NC1=O)C2=O)C(=O)[C@H]1C[C@H](NC(=O)c2cnc(-n3ncc4cc(C#N)cnc43)cc2NC2CC2)C1 (some centres unmarked) [I-37] | C (<20% degradation)
3 | CN(CCOCCOCCOCCOCCNc1cccc2c1C(=O)N(C1CCC(=O)NC1=O)C2=O)C(=O)[C@H]1CC[C@H](NC(=O)c2cnc(-n3ncc4cc(C#N)cnc43)cc2NC2CC2)CC1 (some centres unmarked) [I-38] | C (<20% degradation)
4 | CN(CCOCCOCCOCCOCCNc1cccc2c1C(=O)N(C1CCC(=O)NC1=O)C2=O)C(=O)[C@H]1C[C@H](NC(=O)c2cnc(-n3ncc4cc(C#N)cnc43)cc2NC2CC2)C1 (some centres unmarked) [I-39] | C (<20% degradation)
5 | O=C1CCC(N2C(=O)c3cccc(NCCOCc4ccc(COCCNC(=O)[C@H]5CC[C@H](NC(=O)c6cnc(Nc7ccc8cnccc8n7)cc6NC6CC6)CC5)nc4)c3C2=O)C(=O)N1 (some centres unmarked) [I-41, 6-((1,6-naphthyridin-2-yl)amino)-4-(cyclopropylamino)-N-((1r,4r)-4-((2-((5-((2-((2-(2,6-dioxopiperidin-3-yl)-1,3-dioxoisoindolin-4-yl)amino)ethoxy)methyl)pyridin-2-yl)methoxy)ethyl)carbamoyl)cyclohexyl)nicotinamide] | C (<20% degradation)
6 | CN(CCOCCOCCNc1cccc2c1C(=O)N(C1CCC(=O)NC1=O)C2=O)C(=O)[C@H]1CC[C@H](NC(=O)c2cnc(-n3ncc4cc(C#N)cnc43)cc2NC2CC2)CC1 (some centres unmarked) [I-42, 6-(5-cyano-1H-pyrazolo[3,4-b]pyridin-1-yl)-4-(cyclopropylamino)-N-((1r,4r)-4-((2-(2-(2-((2-(2,6-dioxopiperidin-3-yl)-1,3-dioxoisoindolin-4-yl)amino)ethoxy)ethoxy)ethyl) (methyl)carbamoyl)cyclohexyl)nicotinamide] | C (<20% degradation)
7 | CN(CCOCCOCCNc1cccc2c1C(=O)N(C1CCC(=O)NC1=O)C2=O)C(=O)[C@H]1C[C@H](NC(=O)c2cnc(Nc3ccc4cnccc4n3)cc2NC2CC2)C1 (some centres unmarked) [I-44, 6-((1,6-naphthyridin-2-yl)amino)-4-(cyclopropylamino)-N-((1r,3r)-3-((2-(2-(2-((2-(2,6-dioxopiperidin-3-yl)-1,3-dioxoisoindolin-4-yl)amino)ethoxy)ethoxy)ethyl)(methyl)carbamoyl)cyclobutyl)nicotinamide] | B (>20-50% degradation)
8 | N#Cc1cnc2c(cnn2-c2cc(NC3CC3)c(C(=O)N[C@H]3CC[C@H](C(=O)NCCOCCNCCOCCOCCNc4cccc5c4C(=O)N(C4CCC(=O)NC4=O)C5=O)CC3)cn2)c1 (stereo partly drawn) [I-45, 6-(5-cyano-1H-pyrazolo[3,4-b]pyridin-1-yl)-4-(cyclopropylamino)-N-((1R,4R)-4-((14-((2-(2,6-dioxopiperidin-3-yl)-1,3-dioxoisoindolin-4-yl)amino)-3,9,12-trioxa-6-azatetradecyl)carbamoyl)cyclohexyl)nicotinamide] | C (<20% degradation)
9 | N#Cc1cnc2c(cnn2-c2cc(NC3CC3)c(C(=O)NCC(F)COCCOCCOCCNc3cccc4c3C(=O)N(C3CCC(=O)NC3=O)C4=O)cn2)c1 (centres unmarked) [I-46, 6-(5-Cyanopyrazolo[3,4-b]pyridin-1-yl)-4-(cyclopropylamino)-N-[3-[2-[2-[2-[[2-(2,6-dioxo-3-piperidyl)-1,3-dioxo-isoindolin-4-yl]amino]ethoxy]ethoxy]ethoxy]-2-fluoro-propyl]pyridine-3-carboxamide] | C (<20% degradation)
10 | O=C1CCC(N2C(=O)c3cccc(NCCOCCOCCOCC(F)CNC(=O)c4cnc(Nc5ccc6ncsc6c5)cc4NC4CC4)c3C2=O)C(=O)N1 (centres unmarked) [I-54] | C (<20% degradation)
11 | CC(C)(OCCOCCOCCNc1cccc2c1C(=O)N(C1CCC(=O)NC1=O)C2=O)C(F)CNC(=O)c1cnc(Nc2ccc3cnccc3n2)cc1NC1CC1 (centres unmarked) [I-56] | C (<20% degradation)
12 | N#Cc1cnc2c(cnn2-c2cc(NC3CC3)c(C(=O)NCC(F)COCCOCCOCCOCCOCCNc3cccc4c3C(=O)N(C3CCC(=O)NC3=O)C4=O)cn2)c1 (centres unmarked) [I-57] | C (<20% degradation)
13 | CC(C)(OCCOCCOCCNc1cccc2c1C(=O)N(C1CCC(=O)NC1=O)C2=O)C(F)CNC(=O)c1cnc(-n2ncc3cc(C#N)cnc32)cc1NC1CC1 (centres unmarked) [I-59] | C (<20% degradation)
14 | CC(C)(OCCOCCOCCOCCOCCNc1cccc2c1C(=O)N(C1CCC(=O)NC1=O)C2=O)C(F)CNC(=O)c1cnc(-n2ncc3cc(C#N)cnc32)cc1NC1CC1 (centres unmarked) [I-60] | C (<20% degradation)
15 | O=C1CCC(N2C(=O)c3cccc(NCCOCCOCC(F)CNC(=O)c4cnc(Nc5ccc6cnccc6n5)cc4NC4CC4)c3C2=O)C(=O)N1 (centres unmarked) [I-61] | C (<20% degradation)
16 | CC(OCCOCCOCCNc1cccc2c1C(=O)N(C1CCC(=O)NC1=O)C2=O)C(F)CNC(=O)c1cnc(Nc2ccc3cnccc3n2)cc1NC1CC1 (centres unmarked) [I-62] | C (<20% degradation)
17 | CC(OCCOCCOCCNc1cccc2c1C(=O)N(C1CCC(=O)NC1=O)C2=O)C(F)CNC(=O)c1cnc(-n2ncc3cc(C#N)cnc32)cc1NC1CC1 (centres unmarked) [I-63] | C (<20% degradation)
18 | CC(C)(OCCOCCOCCOCCOCCNc1cccc2c1C(=O)N(C1CCC(=O)NC1=O)C2=O)C(F)CNC(=O)c1cnc(Nc2ccc3cnccc3n2)cc1NC1CC1 (centres unmarked) [I-64] | C (<20% degradation)
19 | CC(C)(OCCOCCOCCNc1cccc2c1C(=O)N(C1CCC(=O)NC1=O)C2=O)C(F)CNC(=O)c1cnc(Nc2ccc3ncsc3c2)cc1NC1CC1 (centres unmarked) [I-65] | C (<20% degradation)
20 | CC(OCCOCCOCCOCCOCCNc1cccc2c1C(=O)N(C1CCC(=O)NC1=O)C2=O)C(F)CNC(=O)c1cnc(-n2ncc3cc(C#N)cnc32)cc1NC1CC1 (centres unmarked) [I-66] | C (<20% degradation)
21 | CC(C)(OCCOCCOCCNc1cccc2c1C(=O)N(C1CCC(=O)NC1=O)C2=O)C(F)CNC(=O)c1cnc(Nc2ncc(C#N)cc2F)cc1NC1CC1 (centres unmarked) [I-67] | C (<20% degradation)
22 | CC(C)(OCCOCCOCCOCCOCCNc1cccc2c1C(=O)N(C1CCC(=O)NC1=O)C2=O)C(F)CNC(=O)c1cnc(Nc2ccc3ncsc3c2)cc1NC1CC1 (centres unmarked) [I-68] | C (<20% degradation)
23 | CC(C)(OCCOCCOCCOCCOCCNc1cccc2c1C(=O)N(C1CCC(=O)NC1=O)C2=O)C(F)CNC(=O)c1cnc(Nc2ncc(C#N)cc2F)cc1NC1CC1 (centres unmarked) [I-69] | C (<20% degradation)
